Patent US20250263424A1, “KRAS INHIBITORS” (Bristol-Myers Squibb Company, priority 2022, published 2025)

biological target: Recombinant GMPPNP-loaded KRAS G12C (KRAS-G12C(ON), active form) (Homo sapiens, UniProt P01116, G12C); assay: KRAS G12C RAF Disruption Assay (HTRF); format: biochemical; conditions: GMPPNP-loaded KRAS G12C 5 nM, GST-RAF1 RBD 9 nM, values given in μM, read-out: KRASG12C RAF Disruption Assay (IC50)
Outline: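 GMPPNP-loaded KRAS G12C (5 nM) preincubated with compound 20 min at room temperature in Tris pH 7.5 buffer with MgCl2, DTT and BSA. GST-RAF1 RBD (9 nM) then added for 20 min, and SA-Tb (0.25 nM) for 3 h. HTRF 520/495 ratio read; IC50 taken from the dose-response curve.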

Recombinant GMPPNP-loaded KRAS G12C (KRAS-G12C(ON), active form), sequence (P01116 1-188 isoform P01116-2 G12C): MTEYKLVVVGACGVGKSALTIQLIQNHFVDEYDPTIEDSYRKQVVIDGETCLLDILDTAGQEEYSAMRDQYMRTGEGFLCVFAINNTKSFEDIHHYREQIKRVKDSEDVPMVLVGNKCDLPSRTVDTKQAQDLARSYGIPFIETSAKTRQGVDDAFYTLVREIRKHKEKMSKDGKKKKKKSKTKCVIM

Compound	IC50
C[C@H]1CN(C(=O)/C(F)=C/c2nccs2)CCN1c1nc(OC[C@@H]2CCCN2C)nc2c(F)c(-c3cccc4cccc(Cl)c34)c(Cl)cc12 [Example 1, (Z)-1-((3S)-4-(6-chloro-7-(8-chloronaphthalen-1-yl)-8-fluoro-2-(((S)-1-methylpyrrolidin-2-yl)methoxy)quinazolin-4-yl)-3-methylpiperazin-1-yl)-2-fluoro-3-(thiazol-2-yl)prop-2-en-1-one]	49 µM
C[C@H]1CN(C(=O)/C(F)=C/c2ccccn2)CCN1c1nc(OC[C@@H]2CCCN2C)nc2c(F)c(-c3cccc4cccc(Cl)c34)c(Cl)cc12 (single isomer, unassigned) [Example 3]	5.5 µM
Cc1cc(N)nc(-c2c(Cl)cc3c(N4CCC5C(CCN5C(=O)/C(F)=C/c5nccs5)C4)nc(OC[C@]45CCCN4C[C@H](F)C5)nc3c2F)c1C(F)(F)F (single isomer, unassigned) [Example 26, Isomer 2]	55.2 µM
Cc1cc(N)nc(-c2c(Cl)cc3c(N4CCC5C4CCN5C(=O)/C(F)=C/c4nccs4)nc(OC[C@]45CCCN4C[C@H](F)C5)nc3c2F)c1C(F)(F)F (single isomer, unassigned) [Example 25, Isomer 1]	14.1 µM
Cc1cc(N)nc(-c2c(Cl)cc3c(N4CC5CCC4CN5C(=O)/C(F)=C/c4ccccn4)nc(OC[C@@H]4CCCN4C)nc3c2F)c1C(F)(F)F (stereo partly drawn) [Example 6, (Z)-1-(5-((7M)-7-(6-amino-4-methyl-3-(trifluoromethyl)pyridin-2-yl)-6-chloro-8-fluoro-2-(((S)-1-methylpyrrolidin-2-yl)methoxy)quinazolin-4-yl)-2,5-diazabicyclo[2.2.2]octan-2-yl)-2-fluoro-3-(pyridin-2-yl)prop-2-en-1-one]	4.9 µM

same assay, conditions: GMPPNP-loaded KRAS G12C 5 nM, GST-RAF1 RBD 9 nM, values in nM, read-out: KRASG12C RAF Disruption Assay (IC50)

Compound	IC50
Cc1cc2[nH]ncc2c(-c2ccc3c(N(C)[C@@H]4CCN(C(=O)/C(F)=C/c5nccs5)C4)nc(OC[C@@]45CCCN4C[C@H](F)C5)nc3c2F)c1Cl [Example 84, (Z)-1-((3R)-3-((7-(5-chloro-6-methyl-1H-indazol-4-yl)-8-fluoro-2-(((2R,7aS)-2-fluorotetrahydro-1H-pyrrolizin-7a(5H)-yl)methoxy)quinazolin-4-yl)(methyl)amino)pyrrolidin-1-yl)-2-fluoro-3-(thiazol-2-yl)prop-2-en-1-one]	0.098 µM
COCCCN1CCC(Oc2nc(N3CCN(C(=O)/C(F)=C/c4ccccn4)[C@@H](CC#N)C3)c3ccc(-c4cccc5cccc(Cl)c45)c(F)c3n2)CC1 [Example 73, (S,Z)-2-(4-(7-(8-chloronaphthalen-1-yl)-8-fluoro-2-((1-(3-methoxypropyl)piperidin-4-yl)oxy)quinazolin-4-yl)-1-(2-fluoro-3-(pyridin-2-yl)acryloyl)piperazin-2-yl)acetonitrile]	0.71 µM
C#Cc1cccc2cccc(-c3ccc4c(N(C)[C@@H]5CCN(C(=O)/C(F)=C/c6ccccn6)C5)nc(OC[C@@]56CCCN5C[C@H](F)C6)nc4c3F)c12 [Example 81, (Z)-1-((R)-3-((7-(8-ethynylnaphthalen-1-yl)-8-fluoro-2-(((2R,7aS)-2-fluorotetrahydro-1H-pyrrolizin-7a(5H)-yl)methoxy)quinazolin-4-yl)(methyl)amino)pyrrolidin-1-yl)-2-fluoro-3-(pyridin-2-yl)prop-2-en-1-one]	0.02 µM
Cc1ccc2[nH]ncc2c1-c1ccc2c(N3CCN(C(=O)/C(F)=C/c4cccnn4)[C@@H](CC#N)C3)nc(OC[C@@H]3CCCN3C)nc2c1F [Example 53]	0.07 µM
Cc1cc(N)nc(-c2c(Cl)cc3c(N4C[C@]5(NC(=O)/C(F)=C/c6ccccn6)CC[C@H]4C5)nc(OC[C@]45CCCN4C[C@H](F)C5)nc3c2F)c1C(F)(F)F (atropisomer, axis not shown; (M)) [Example 43, (2Z)-N-[(1S,4S)-2-[(7M)-2-{[(2R,7aR)-2-fluoro-hexahydro-1H-pyrrolizin-7a-yl]methoxy}-7-[6-amino-4-methyl-3-(trifluoromethyl)pyridin-2-yl]-6-chloro-8-fluoroquinazolin-4-yl]-2-azabicyclo[2.2.1]heptan-4-yl]-2-fluoro-3-(pyridin-2-yl)prop-2-enamide]	0.19 µM
Cc1ccc2[nH]ncc2c1-c1ccc2c(N3CCN(C(=O)/C(F)=C/c4nccs4)[C@@H](CC#N)C3)nc(OC[C@@]34CCCN3C[C@H](F)C4)nc2c1F [Example 77, 2-((2S)-4-(8-fluoro-2-(((2R,7aS)-2-fluorotetrahydro-1H-pyrrolizin-7a(5H)-yl)methoxy)-7-(5-methyl-1H-indazol-4-yl)quinazolin-4-yl)-1-((Z)-2-fluoro-3-(thiazol-2-yl)acryloyl)piperazin-2-yl)acetonitrile]	0.05 µM
C#Cc1c(F)ccc2cc(O)cc(-c3ccc4c(N5C[C@H]6CC[C@@H](C5)N6C(=O)/C(F)=C/c5ccccn5)nc(OC[C@]56CCC[C@H]5N(C)CCC6)nc4c3F)c12 [Example 27, (Z)-1-((1R,5S)-3-(7-(8-ethynyl-7-fluoro-3-hydroxynaphthalen-1-yl)-8-fluoro-2-(((4aS,7aR)-1-methyloctahydro-4aH-cyclopenta[b]pyridin-4a-yl)methoxy)quinazolin-4-yl)-3,8-diazabicyclo[3.2.1]octan-8-yl)-2-fluoro-3-(pyridin-2-yl)prop-2-en-1-one]	0.0064 µM
CCc1cccc2cccc(-c3ccc4c(N5CCN(C(=O)/C(F)=C/c6ccccn6)[C@@H](CC#N)C5)nc(OC[C@@H]5CCCN5C)nc4c3F)c12 [Example 59, 2-((S)-4-(7-(8-ethylnaphthalen-1-yl)-8-fluoro-2-(((S)-1-methylpyrrolidin-2-yl)methoxy)quinazolin-4-yl)-1-((Z)-2-fluoro-3-(pyridin-2-yl)acryloyl)piperazin-2-yl)acetonitrile]	0.26 µM
CN1CCC[C@H]1COc1nc(N2CCN(C(=O)/C(F)=C/c3nccs3)[C@@H](CC#N)C2)c2ccc(-c3cc(O)cc4ccccc34)c(F)c2n1 [Example 23, 2-((S)-1-((Z)-2-fluoro-3-(thiazol-2-yl)acryloyl)-4-(8-fluoro-7-(3-hydroxynaphthalen-1-yl)-2-(((S)-1-methylpyrrolidin-2-yl)methoxy)quinazolin-4-yl)piperazin-2-yl)acetonitrile]	0.016 µM
CCc1cccc2cccc(-c3ccc4c(N5CCN(C(=O)/C(F)=C/c6nccs6)[C@@H](CC#N)C5)nc(OC[C@@H]5CCCN5C)nc4c3F)c12 [Example 60, 2-((S)-4-(7-(8-ethylnaphthalen-1-yl)-8-fluoro-2-(((S)-1-methylpyrrolidin-2-yl)methoxy)quinazolin-4-yl)-1-((Z)-2-fluoro-3-(thiazol-2-yl)acryloyl)piperazin-2-yl)acetonitrile]	0.17 µM
CN1CCC[C@H]1COc1nc(N2CCN(C(=O)/C(F)=C/c3ncccn3)[C@@H](CC#N)C2)c2ccc(-c3cccc4cccc(Cl)c34)c(F)c2n1 [Example 38, 2-((S)-1-((Z)-2-fluoro-3-(pyrimidin-2-yl)acryloyl)-4-(8-fluoro-7-(8-chloronaphthalen-1-yl)-2-(((S)-1-methylpyrrolidin-2-yl)methoxy)quinazolin-4-yl)piperazin-2-yl)acetonitrile]	0.13 µM
CCc1cccc2cccc(-c3ccc4c(N5CCN(C(=O)/C(F)=C/c6cnccn6)[C@@H](CC#N)C5)nc(OC[C@@H]5CCCN5C)nc4c3F)c12 [Example 58, 2-((S)-4-(7-(8-ethylnaphthalen-1-yl)-8-fluoro-2-(((S)-1-methylpyrrolidin-2-yl)methoxy)quinazolin-4-yl)-1-((Z)-2-fluoro-3-(pyrazin-2-yl)acryloyl)piperazin-2-yl)acetonitrile]	2.4 µM
Cc1ccc2[nH]ncc2c1-c1ccc2c(N3CCN(C(=O)/C(F)=C/c4ccccn4)[C@@H](CC#N)C3)nc(OC[C@@]34CCCN3C[C@H](F)C4)nc2c1F [Example 76, 2-((2S)-4-(8-fluoro-2-(((2R,7aS)-2-fluorotetrahydro-1H-pyrrolizin-7a(5H)-yl)methoxy)-7-(5-methyl-1H-indazol-4-yl)quinazolin-4-yl)-1-((Z)-2-fluoro-3-(pyridin-2-yl)acryloyl)piperazin-2-yl)acetonitrile]	0.05 µM
COCCCN1CCC(Oc2nc(N3CCN(C(=O)/C(F)=C/c4nccs4)[C@@H](CC#N)C3)c3ccc(-c4cccc5cccc(Cl)c45)c(F)c3n2)CC1 [Example 74, (S,Z)-2-(4-(7-(8-chloronaphthalen-1-yl)-8-fluoro-2-((1-(3-methoxypropyl)piperidin-4-yl)oxy)quinazolin-4-yl)-1-(2-fluoro-3-(thiazol-2-yl)acryloyl)piperazin-2-yl)acetonitrile]	1.5 µM
CN1CCC[C@H]1COc1nc(N2CCN(C(=O)/C(F)=C/c3ccccn3)CC2)c2ccc(-c3cc(O)cc4ccccc34)c(F)c2n1 [Example 28, (S,Z)-2-fluoro-1-(4-(8-fluoro-7-(3-hydroxynaphthalen-1-yl)-2-((1-methylpyrrolidin-2-yl)methoxy)quinazolin-4-yl)piperazin-1-yl)-3-(pyridin-2-yl)prop-2-en-1-one]	0.35 µM
CN1CCC[C@H]1COc1nc(N2CCN(C(=O)/C(F)=C/c3ccccn3)[C@@H](CC#N)C2)c2ccc(-c3cc(Cl)ccc3OC(F)(F)F)c(F)c2n1 [Example 65, 2-((S)-4-(7-(5-chloro-2-(trifluoromethoxy)phenyl)-8-fluoro-2-(((S)-1-methylpyrrolidin-2-yl)methoxy)quinazolin-4-yl)-1-((Z)-2-fluoro-3-(pyridin-2-yl)acryloyl)piperazin-2-yl)acetonitrile]	2.1 µM
